pIC50, pKi: −log10 of the molar value.
How the values were obtained:
[1] = Partition coefficient (logP); type: physicochemical; settings: octanol/water
Adenosine receptor A1 = target: T1, Adenosine receptor A1 (Rattus norvegicus, UniProt P25099); assay: Tested for inhibition of adenosine A1 receptor binding to rat brain
T1 sequence (P25099 whole entry): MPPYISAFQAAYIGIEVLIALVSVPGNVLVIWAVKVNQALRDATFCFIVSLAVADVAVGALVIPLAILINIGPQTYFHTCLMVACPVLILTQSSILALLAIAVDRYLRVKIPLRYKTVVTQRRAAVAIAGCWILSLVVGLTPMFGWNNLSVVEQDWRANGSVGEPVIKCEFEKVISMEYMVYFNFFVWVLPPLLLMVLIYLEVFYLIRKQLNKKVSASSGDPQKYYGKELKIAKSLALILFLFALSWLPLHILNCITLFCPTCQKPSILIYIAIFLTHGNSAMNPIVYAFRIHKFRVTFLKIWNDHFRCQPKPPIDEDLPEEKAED

Adenosine A2 receptor = Adenosine A2 receptor (Rattus norvegicus, UniProt P29276+P30543); assay: Tested for inhibition of adenosine A2 receptor binding to rat brain
Cavia porcellus [2] = species on record: Cavia porcellus; assay: Tested for agonistic potency to inhibit contractile force in isolated guinea pig atria; type: functional
Cavia porcellus [3] = species on record: Cavia porcellus; assay: Tested for agonistic potency to inhibit stimulated cAMP accumulation in isolated guinea pig heart; type: functional

| logP [1] | pKi (Adenosine receptor A1) | Ki (Adenosine A2 receptor) | pIC50 (Cavia porcellus [2]) | pIC50 (Cavia porcellus [3]) | Compound |
| --- | --- | --- | --- | --- | --- |
| -0.55 | 7.52 | 3320 nM | – | – | Nc1nc(NN2CCCCC2)c2ncn([C@@H]3O[C@H](CO)[C@@H](O)[C@H]3O)c2n1 |
| 0.11 | 7.88 | 1040 nM | – | – | OC[C@H]1O[C@@H](n2cnc3c(NN4CCOCC4)nc(Cl)nc32)[C@H](O)[C@@H]1O |
| 1.28 | < 5.52 | > 10000 nM | – | – | OC[C@H]1O[C@@H](n2cnc3c(NN4CCCCC4)ncnc32)[C@H](O)[C@@H]1O |
| 0.35 | 8.44 | 1050 nM | 5.89 | 8.42 | OC[C@H]1O[C@@H](n2cnc3c(NN4CCCCC4)nc(F)nc32)[C@H](O)[C@@H]1O |
| 0.89 | 6.41 | 2825 nM | – | – | CSc1nc(NN2CCCCC2)c2ncn([C@@H]3O[C@H](CO)[C@@H](O)[C@H]3O)c2n1 |
| 0.79 | 8.38 | 1485 nM | 6.24 | 8.68 | OC[C@H]1O[C@@H](n2cnc3c(NN4CCCCC4)nc(Cl)nc32)[C@H](O)[C@@H]1O |
| 0.89 | 8.03 | 1520 nM | – | – | OC[C@H]1O[C@@H](n2cnc3c(NN4CCCCC4)nc(Br)nc32)[C@H](O)[C@@H]1O |
| 1.42 | 8.03 | 1130 nM | – | – | OC[C@H]1O[C@@H](n2cnc3c(NN4CCCCCC4)nc(Cl)nc32)[C@H](O)[C@@H]1O |
| 0.11 | 6.74 | > 30000 nM | – | – | CN1CCN(Nc2nc(Cl)nc3c2ncn3[C@@H]2O[C@H](CO)[C@@H](O)[C@H]2O)CC1 |
| – | 6.40 | 2700 nM | – | – | CCCOc1nc(NN2CCCCC2)c2ncn([C@@H]3O[C@H](CO)[C@@H](O)[C@H]3O)c2n1 |
| 1.42 | 4.89 | 57000 nM | – | – | OC[C@H]1O[C@@H](n2cnc3c(NN4CCCC4)nc(I)nc32)[C@H](O)[C@@H]1O |
| -0.82 | 7.96 | 720 nM | 6.33 | 8.34 | OC[C@H]1O[C@@H](n2cnc3c(NN4CCCC(O)C4)nc(Cl)nc32)[C@H](O)[C@@H]1O (mixture of isomers) |

Further lines, the molecule ahead of its results:

| Compound | logP [1] | pKi (Adenosine receptor A1) | Ki (Adenosine A2 receptor) | pIC50 (Cavia porcellus [2]) | pIC50 (Cavia porcellus [3]) |
| --- | --- | --- | --- | --- | --- |
| OC[C@H]1O[C@@H](n2cnc3c(NC4CCCC4)nc(Cl)nc32)[C@H](O)[C@@H]1O | 2.07 | – | – | – | – |
| COC[C@@H]1CCCN1Nc1nc(Cl)nc2c1ncn2[C@@H]1O[C@H](CO)[C@@H](O)[C@H]1O | 0.32 | 8.00 | 564 nM | – | – |
| OC[C@H]1O[C@@H](n2cnc3c(NN4CCC(c5ccccc5)CC4)nc(Cl)nc32)[C@H](O)[C@@H]1O | 2.36 | 7.96 | 1200 nM | 6.49 | 8.60 |
| CC1CCCC(C)N1Nc1nc(Cl)nc2c1ncn2[C@@H]1O[C@H](CO)[C@@H](O)[C@H]1O (stereo partly drawn) | 1.38 | 8.40 | 33 nM | – | – |
| COC[C@H]1CCCN1Nc1nc(Cl)nc2c1ncn2[C@@H]1O[C@H](CO)[C@@H](O)[C@H]1O | 0.32 | 7.96 | 459 nM | – | – |
| OC[C@H]1O[C@@H](n2cnc3c(NN4CCC(Sc5ccccc5)CC4)nc(Cl)nc32)[C@H](O)[C@@H]1O | 2.62 | 9.05 | 470 nM | 6.19 | 9.52 |
| OC[C@H]1O[C@@H](n2cnc3c(NN4CCC(Oc5ccccc5)CC4)nc(Cl)nc32)[C@H](O)[C@@H]1O | 2.05 | 8.85 | 1100 nM | 6.72 | 10.52 |
| O=S(=O)(c1ccccc1)C1CCN(Nc2nc(Cl)nc3c2ncn3[C@@H]2O[C@H](CO)[C@@H](O)[C@H]2O)CC1 | – | 7.77 | 220 nM | 6.49 | 9.15 |
| OC[C@H]1O[C@@H](n2cnc3c(NN4CCN(c5ccccc5)CC4)nc(Cl)nc32)[C@H](O)[C@@H]1O | 1.42 | 7.26 | 5571 nM | – | – |
| OC[C@H]1O[C@@H](n2cnc3c(NN4CC=C(c5ccccc5)CC4)nc(Cl)nc32)[C@H](O)[C@@H]1O | 2.28 | 8.21 | 638 nM | 5.54 | 8.96 |
| OC[C@H]1O[C@@H](n2cnc3c(NN4CCCCC4c4ccccc4)nc(Cl)nc32)[C@H](O)[C@@H]1O (stereo partly drawn) | 2.25 | 7.47 | 17 nM | – | – |
| OC[C@H]1O[C@@H](n2cnc3c(NN4CCCC(Sc5ccccc5)C4)nc(Cl)nc32)[C@H](O)[C@@H]1O (mixture of isomers) | 2.89 | 7.89 | 1380 nM | – | – |
| OC[C@H]1O[C@@H](n2cnc3c(NN4CCCC(Oc5ccccc5)C4)nc(Cl)nc32)[C@H](O)[C@@H]1O (mixture of isomers) | 1.88 | 7.82 | 1733 nM | 5.35 | 8.32 |
| OC[C@H]1O[C@@H](n2cnc3c(NC4CCCC4)ncnc32)[C@H](O)[C@@H]1O [N6-CYCLOPENTYLADENOSINE] | 0.72 | – | 321 nM | 6.38 | 9.22 |
